The target in one data set is T1, CYP3A4 (Homo sapiens, UniProt P08684).
T1 construct: Cerep
Kind of data set: CYP450 3A4 inhibition (Cerep). The format is in vitro ADME. How it is done:
(§1) Assays for drug likeness (solubility, microsomal stability, plasma protein binding, A-B efflux, cytochrome CYP450 3A4, hERG binding, and Ames) were carried out by Cerep (Washington USA, and France) using standard protocols for in vitro testing. Assay protocols are provided online at http://www.cerep.fecerep/users/pages/catalog/profiles/catalog.asp and Cerep standard procedures and concentrations were used for all assays.

Another data set is described as follows: Ames (Cerep). The conditions noted are these: with or without S9 activation. How it is done: as §1
Data set [1] deals with dengue virus (DENV serotype 2, strain New Guinea C). Nature of the data set: microbe, parasite or virus in culture. The format is cell-based. The following applies: DENV2, 120 h, virus yield reduction in Vero cells, 5 days.
Data set [2] is described as follows: CellTiter-Glo Luminescent Cell Viability Assay (cytotoxicity). The format is cell-based. The conditions noted are these: African green monkey; Vero cells, 3-5 days in culture. How it is done: Cytotoxicity: To determine the cytotoxicity of the compounds in Vero cells, the CellTiter-Glo Luminescent Cell Viability Assay (Promega) was used. The compounds were tested at 6-8 concentrations in three replicates. Control conditions include vehicle-only treated cells to set 100% surviving cells, DMSO-killed cells as a cell death-inducing control, and no cells for 0% surviving cells. Cytotoxicity is measured after 3-5 days in culture by the change/decrease in relative light units (RLUs) in each sample which reflects the amount of ATP present (an indicator of metabolically active cells).
The 50% cellular cytotoxicity (CC50) value is calculated based on the RLUs of the compound-treated samples using vehicle-only control as 100% survival and no cells as 0% survival.
(In general: Cellular ATP, detected with luciferase, serves as a proxy for viable cell number.)

The nature of data set [3]: Human plasma protein binding (Cerep). It is filed as in vitro ADME. How it is done: as §1
Data set [4] is described as follows: In vivo pharmacokinetics and oral bioavailability in rat. More on the design: species or system male Sprague-Dawley rats. The following applies: male, Sprague-Dawley, plasma. How it is done:
In vivo pharmacokinetic parameters and oral bioavailability for UV-0060 was determined by Eurofins (Cerep Panlabs, Taiwan). A pharmacokinetic study following oral and intravenous administrations was performed using male Sprague-Dawley rats. Test article was formulated in 2% DMSO/0.9% NaCl and administered orally (PO) at 10 mg/kg and intravenously (IV) at 5 mg/kg to groups of 3 rats. The dosing volume was 10 mL/kg for PO and 5 mL/kg for IV. Rats weighing 220±20 g were used. Blood samples were harvested at 3, 10, 30, 60, 120, 240, 360, 720 and 1440 minutes after intravenous injection and at 10, 30, 60, 120, 240, 360, 720 and 1440 minutes after oral administration. Blood was collected in tubes coated with lithium heparin, mixed gently, then kept on ice and centrifuged at 2,500×g for 15 minutes at 4° C., within 1 hour of collection. The plasma was harvested and kept frozen at −80° C. until further processing. A plasma calibration curve from 3-10000 ng/mL was generated using oxybutynin as internal standard. Aliquots of drug-free plasma were spiked with the test compound at the specified concentration levels. Plasma samples were processed using acetonitrile precipitation and analyzed by HPLC/MS/MS. The spiked plasma samples were processed together with the unknown plasma samples using the same procedure. HPLC/MS/MS analysis was carried out with electrospray ionization in positive ion mode with multiple reaction monitoring. HPLC column was Agilent Poroshell 120 EC-C18 column 2.7 μm (3.0×50 mm, 23° C.) with an acetonitrile/water/formic acid mobile phase gradient. Standards data were fitted linearly with a 1/x2 weighting.

In data set [5] the test system is Venezuelan Equine Encephalitis Virus (VEEV TC-83 stain). Nature of the data set: microbe, parasite or virus in culture. The format is cell-based. The conditions noted are these: Vero, 72 h, read-out: IC50 Venezuelan Equine Encephalitis TC-83 (VEEV).
The nature of data set [6]: Aqueous solubility in gastric and intestinal fluids (Cerep). The format is physicochemical. How it is done:
as §1

Data set [7] can be described thus: A-B Efflux (Caco2) (Cerep). The conditions noted are these: human, Caco-2. The format is in vitro ADME. How it is done:
as §1

Data set [8] in a line: Human microsomal stability (Cerep). It is filed as in vitro ADME. The following applies: human microsomes; read-out: Human microsomal stability: t½. How it is done: as §1
Data set [9] can be described thus: Aqueous solubility in acidified water. The format is physicochemical. The following applies: aqueous buffer; in acidified water pH~4.
Data set [10] is described as follows: In vivo pharmacokinetics in guinea pig. The following applies: plasma.
Data set [11] can be described thus: In vivo pharmacokinetics in mouse. The following applies: plasma.
The mark [12] stands for this setting: Guinea pig, single dose, tested IV, SQ, IM routes.
[13] abbreviates: Mouse, single dose, tested IV, oral routes.

T1 sequence (P08684 whole entry): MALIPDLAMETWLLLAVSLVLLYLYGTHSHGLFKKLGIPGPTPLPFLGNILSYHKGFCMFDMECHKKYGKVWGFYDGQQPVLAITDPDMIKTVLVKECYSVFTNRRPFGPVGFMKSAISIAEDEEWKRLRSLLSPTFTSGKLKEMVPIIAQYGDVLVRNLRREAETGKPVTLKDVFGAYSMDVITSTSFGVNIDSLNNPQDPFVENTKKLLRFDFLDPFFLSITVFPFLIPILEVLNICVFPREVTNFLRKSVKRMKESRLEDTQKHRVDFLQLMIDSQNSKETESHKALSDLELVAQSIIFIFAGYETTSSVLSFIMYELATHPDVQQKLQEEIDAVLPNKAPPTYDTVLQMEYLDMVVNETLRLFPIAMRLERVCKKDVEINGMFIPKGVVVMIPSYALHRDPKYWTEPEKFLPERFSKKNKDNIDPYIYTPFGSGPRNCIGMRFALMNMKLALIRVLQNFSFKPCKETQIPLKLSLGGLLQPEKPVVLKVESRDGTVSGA

One may read the inhibition as the percentage by which the read-out fell short of the control. Higher therefore signals a strong effect. Usually IC50 stands for the concentration that gives 50% inhibition. One may read the CC50 as the concentration giving 50% cytotoxicity. High values mean lower toxicity to the cells, low ones greater toxicity to the cells. By fraction unbound is commonly meant the share of the substance not bound to proteins or other matrix. Read a high fraction unbound as much free substance. As a reminder, the Tmax is the time at which the peak concentration occurs. A word on the solubility: it is the dissolved amount per volume that the medium holds. Usually Papp A→B stands for the apparent permeability from the apical to the basolateral side of a cell layer. High values mean ready permeation, low ones poor permeation. At CYP3A4, `O=[N+]([O-])c1cc(-n2nccn2)ccc1NCCCCCCN1C[C@H](O)[C@@H](O)[C@H](O)[C@H]1CO` [UV-0060] registered an inhibition at 10 µM of 0.2%. In addition, the Ames result in “Ames (Cerep)” is “Ames: negative with or without S9”. For the same compound, the figures for the IC50 in data set [1] and in data set [5] were 5 µM and 94.1 µM, respectively. Further, it took 245 µM to reach half-maximal cytotoxicity in data set [2] (CC50). In addition, the fraction unbound at 10 microM in [3] is 0.12. Further, in data set [4] (PO 10 mg/kg vs IV 5 mg/kg), the bioavailability is 6%. Also, the clearance in [4] (single dose, IV 5 mg/kg) was 72.9 mL/min/kg. Also, the half-life in data set [4] (single dose, IV 5 mg/kg, read-out: T1/2 (IV)) is 2.8 h; in [4] (single dose, PO 10 mg/kg, read-out: T1/2 (PO)) it was 2.2 h; in data set [8], greater than 1 h. The Tmax in [4] (single dose, PO 10 mg/kg) worked out at 2.2 h. Also, the solubility in data set [6] (gastric fluid, simulated gastric fluid, read-out: Aqueous solubility in gastric fluid) was greater than 200 µM; in [6] (intestinal fluid, fassgf or other biorelevant, read-out: Aqueous solubility in intestinal fluid), greater than 200 µM. The Papp A→B in data set [7] is roughly 0.3 ×10⁻⁶ cm/s.
One may read the Cmax as the highest concentration seen after dosing. `[N-]=[N+]=Nc1ccc(NCCCCCCN2C[C@H](O)[C@@H](O)[C@H](O)[C@H]2CO)c([N+](=O)[O-])c1` [UV-5] showed a solubility in data set [9] greater than 112 mg/mL. In data set [10] (guinea pig), this compound had a clearance of 233 mL/min/kg. Besides, the half-life in [10] (guinea pig, Guinea pig, single dose, tested IV, SQ, IM routes, read-out: T½) was 1.62 to 3.99 h; in data set [10] (guinea pig, guinea pig, read-out: Plasma t½) it was 1.62 h; in data set [11] (mouse, Mouse, single dose, tested IV, oral routes, read-out: T1/2), 4.09 to 8.96 h; in data set [11] (mouse, mice, read-out: Plasma t½), roughly 4 h. The Vd in data set [10] (guinea pig, read-out: Vss) is 16.9 L/kg. Moreover, the bioavailability is 187 to 198% in [10] (other: IM, Guinea pig, IM, SC) and 80% in data set [11] (mouse, mice, oral). Further, the figures for the Cmax in data set [10] (setting [12]) and in data set [11] (setting [13]) were 2320 to 3790 ng/mL and 14400 ng/mL, respectively. For the same compound, the Tmax in data set [10] (setting [12]) was 0.75 to 1.13 h; in [11] (setting [13]) it was 1 h.
Consider `OC[C@@H]1[C@@H](O)[C@H](O)[C@@H](O)CN1CCCCCCCCc1ccco1` [UV-30, (2R,3R,4R,5S)-1-(8-(furan-2-yl)octyl)-2-(hydroxymethyl)piperidine-3,4,5-triol], for which the values for the IC50 in data set [1] and in data set [5] were 7 µM and 14 µM, respectively. In [2], this compound yielded a CC50 of no less than 125 µM.

Values taken from patent US10428022B2, “Iminosugars useful for the treatment of viral diseases” (Emergent Virology, LLC, priority 2014, dated 2019).
